Publication PMC5678585, “Screening a protein kinase inhibitor library against Plasmodium falciparum” (Malaria Journal, 2017)
Like-named read-outs stand apart in the source and are kept apart here. Blank lines part the entries; values can stand above or below the molecule they belong to.

Legend:
[1] = system: Plasmodium falciparum 3D7; experiment: microbe, parasite or virus in culture
Protocol: Growth inhibition was quantified using a fluorescence assay utilizing the binding of SYBR Green I to double stranded DNA, which emits a fluorescent signal at 528 nm after excitation at 485 nm. The SYBR Green assay system was adapted to maximize robustness and to align with available automation systems. The Prestwick Library then used as a pilot screen to validate the performance of the optimized assay. […] Single point screens were carried out, and the potency of compounds of interest was determined in duplicate on two independent occasions. A 96-well [^3H]-Hypoxanthine incorporation assay was also developed as a secondary assay in order to validate key compounds from each hit series in an orthogonal platform.
(§1) All data were processed using IDBS ActivityBase. […] The formula used to calculate Z’ is 1-3×(StDev_high+StDev_low)/ABS(Mean_high-Mean_low) .
Two independent assays were run.

[2] = in vitro; type: cell-based; settings: human, MRC-5 pd30 normal diploid fibroblasts (monolayers); Table 8, MMV03 SAR; read-out: MRC5 EC50
Protocol: (§2) Cells were plated and incubated overnight to allow them to adhere as monolayers. A working stock of each test compound was transferred to an intermediate 384-well plate and pre-diluted with minimum essential media (MEM). The pre-diluted stocks were then transferred onto the cell monolayers, and the plates were incubated for 68 h. Resazurin, to a final concentration of 50 μM was added to each well, after which plates were incubated for a further 3 h and measured for fluorescence (λ ex = 528 nm, λ em = 590 nm).
as §1
(§3) All EC50 Curve fitting was undertaken using XLFit version 4.2 using Model 205 with the following 4 parametric equation: y=A+B-A/1+[…], where A = % inhibition at bottom, B = % inhibition at top, C = EC50, D = slope, x = inhibitor concentration and y = % inhibition.

[3] = system: Plasmodium falciparum; experiment: [3H]-Hypoxanthine incorporation assay (orthogonal, radiometric); type: cell-based
Protocol: Cultures of 3D7, a P. falciparum chloriquine sensitive reference strain, were maintained in a 5% suspension of A+ human red blood cells (obtained from East of Scotland Blood Transfusion Service, Ninewells Hospital, Dundee, UK) cultured in RPMI 1640 medium (pH 7.3) supplemented with 0.5% Albumax II (Gibco Life Technologies, San Diego, CA, USA), 12 mM sodium bicarbonate, 0.2 mM hypoxanthine, and 20 mg/l gentamicin at 37 °C, in a humidified atmosphere of 1% O2, 3% CO2 with a balance of nitrogen. Growth inhibition was quantified using a fluorescence assay utilizing the binding of SYBR Green I to double stranded DNA, which emits a fluorescent signal at 528 nm after excitation at 485 nm. The SYBR Green assay system was adapted to maximize robustness and to align with available automation systems. The Prestwick Library then used as a pilot screen to validate the performance of the optimized assay. […] Single point screens were carried out, and the potency of compounds of interest was determined in duplicate on two independent occasions. A 96-well [^3H]-Hypoxanthine incorporation assay was also developed as a secondary assay in order to validate key compounds from each hit series in an orthogonal platform.
The traditionally used [^3H]-hypoxanthine incorporation assay is labour intensive, low throughput and requires the use of radio-labelled hypoxanthine.

[4] = system: normal diploid human fibroblasts (MRC-5 pd30); experiment: in vitro; type: cell-based
Protocol: as §2, §1, §3

[5] = system: Plasmodium falciparum 3D7; settings: Table 7, MMV04 SAR; data reported previously ref 24, 25; read-out: P. fal. EC50; cited from earlier work
[6] = system: normal diploid human fibroblasts (MRC-5 pd30); settings: read-out: MRC5 EC50, cited from earlier work
[7] = Plasmodium falciparum, 3D7, read-out: P. fal. EC50
[8] = read-out: EC50 Fluorescent (SYBR Green), C.I. 95%, n = 4
[9] = read-out: EC50 P. falciparum, Table 4, primary hits of kinase library
[10] = read-out: P. fal. EC50, Table 8, MMV03 SAR
[11] = C.I. 95%, n = 2, read-out: EC50 Radiometric ([3H]-hypoxanthine)
[12] = Table 4, primary hits of kinase library, read-out: EC50 MRC5 cells
[13] = Table 8, MMV03 SAR, read-out: MRC5 EC50
[14] = read-out: P. fal. EC50, Table 7, MMV04 SAR
[15] = Table 7, MMV04 SAR, read-out: MRC5 EC50
[16] = read-out: P. fal. EC50, Table 6, MMV02 SAR
[17] = Table 6, MMV02 SAR, read-out: MRC5 EC50

Structure (SMILES): O=C(Nc1nc2ccccc2[nH]1)c1cn(-c2ccccc2)nc1-c1cccs1 [Compound A0034]
- EC50 [1, 7]: 0.8 µM
- LLE (ligand-lipophilicity efficiency) ([1]; Table 8, MMV03 SAR): 2
- EC50 at 68 h [2]: 13 µM

Structure (SMILES): O=C(Nc1cccnc1)c1cn(-c2ccccc2)nc1-c1cccs1 [Compound A0003]
- LLE (ligand-lipophilicity efficiency) ([1]; Table 8, MMV03 SAR): 3.2
- EC50 [1, 8]: 0.59 ± 0.12 µM
- EC50 [1, 9]: 0.6 µM
- EC50 [1, 10]: 0.3 µM
- EC50 [3, 11]: 0.15 ± 0.25 µM
- EC50 [4, 12]: > 15 µM
- EC50 [4, 13]: > 50 µM

Structure (SMILES): CCOC(=O)c1ccc(NC(=O)c2cc(-c3cccnc3)nc3ccc(Cl)cc23)cc1 [Compound A0024]
- EC50 [1, 14]: 0.2 µM
- EC50 [4, 15]: 18 µM

Structure (SMILES): FC(F)(F)Oc1ccc(Nc2cc(-c3cccc(C(F)(F)F)c3)nc(-c3ccccc3)n2)cc1 [Compound A0022]
- activity against P. falciparum relative to A0002 ([1]; MMV02 series): tenfold less active
- EC50 [1, 16]: 2.3 µM
- EC50 [4, 17]: 11 µM

Structure (SMILES): O=C(Nc1ccncc1)c1cn(-c2ccccc2)nc1-c1cccs1 [Compound A0033]
- LLE (ligand-lipophilicity efficiency) ([1]; Table 8, MMV03 SAR): 2.9
- EC50 [1, 10]: 0.7 µM
- EC50 [4, 13]: 39 µM

Structure (SMILES): CC(C)CCNC(=O)c1cn(-c2ccccc2)nc1-c1cccs1 [Compound A0036]
- LLE (ligand-lipophilicity efficiency) ([1]; Table 8, MMV03 SAR): 1.1
- EC50 [1, 10]: 18 µM
- EC50 [4, 13]: 50 µM

Structure (SMILES): O=C(Nc1cccnc1)c1cc(-c2cccnc2)nc2ccc(Br)cc12 [Compound A0004]
- EC50 [1, 8]: 0.7 ± 0.07 µM
- EC50 [1, 9]: 0.7 µM
- EC50 [1, 14]: 0.7 µM
- EC50 [3, 11]: 0.41 ± 0.47 µM
- EC50 [4, 12]: > 15 µM
- EC50 [4, 15]: > 15 µM

Structure (SMILES): Cc1ccc(-c2cc(C(=O)Nc3cccnc3)c3cc(Br)ccc3n2)cc1 [Compound A0031]
- activity against P. falciparum relative to A0004 ([1]; MMV04 series): fivefold more active
- EC50 [5]: 0.12 µM
- EC50 ([6]; Table 7, MMV04 SAR, data reported previously ref 24, 25): 20 µM

Structure (SMILES): Fc1ccc(-c2cc(Nc3ccncc3)nc(-c3ccccc3)n2)cc1 [Compound A0002]
- EC50 [1, 8]: 0.23 ± 0.04 µM
- EC50 [1, 9]: 0.2 µM
- EC50 [1, 16]: 0.2 µM
- EC50 [3, 11]: 0.06 ± 0.07 µM
- EC50 [4, 12]: 6 µM
- EC50 [4, 17]: 6 µM

Structure (SMILES): Fc1ccccc1-c1cc(Nc2ccncc2)nc(-c2ccccc2)n1 [Compound A0021]
- EC50 ([6]; Table 6, MMV02 SAR, data reported previously ref 23): > 50 µM

Structure (SMILES): Cc1cc(NC(=O)c2cn(-c3ccccc3)nc2-c2cccs2)[nH]n1 [Compound A0012]
- LLE (ligand-lipophilicity efficiency) ([1]; Table 8, MMV03 SAR): 1.9
- EC50 [1, 10]: 6 µM
- EC50 [4, 13]: 24 µM

The remaining lines, values ahead:

- LLE (ligand-lipophilicity efficiency) ([1]; Table 8, MMV03 SAR): 2.7
- EC50 [1, 10]: 13 µM
- EC50 [4, 13]: 18 µM
Structure (SMILES): CCN(CC)CCNC(=O)c1cn(-c2ccccc2)nc1-c1cccs1 [Compound A0037]

- LLE (ligand-lipophilicity efficiency) ([1]; Table 8, MMV03 SAR): 3.2
- EC50 [1, 10]: 2 µM
- EC50 [4, 13]: 18 µM
Structure (SMILES): O=C(Nc1cccnc1)c1cn(-c2ccccc2)nc1-c1cccnc1 [Compound A0038]

- LLE (ligand-lipophilicity efficiency) ([1]; Table 8, MMV03 SAR): 3.2
- EC50 [1, 10]: 0.4 µM
- EC50 [4, 13]: 15 µM
Structure (SMILES): N#Cc1ccc(-n2cc(C(=O)Nc3nc4ccccc4[nH]3)c(-c3cccnc3)n2)cc1 [Compound A0041]

- EC50 [1, 7]: 21 µM
- LLE (ligand-lipophilicity efficiency) ([1]; Table 8, MMV03 SAR): 2.1
- EC50 at 68 h [2]: 50 µM
Structure (SMILES): CC(C)c1nn(-c2ccccc2)cc1C(=O)Nc1cccnc1 [Compound A0039]

- EC50 [1, 7]: > 50 µM
- LLE (ligand-lipophilicity efficiency) ([1]; Table 8, MMV03 SAR): 2
- EC50 at 68 h [2]: > 50 µM
Structure (SMILES): Cn1cc(C(=O)Nc2cccnc2)c(-c2cccs2)n1 [Compound A0044]

- LLE (ligand-lipophilicity efficiency) ([1]; Table 8, MMV03 SAR): 2.8
- EC50 [1, 10]: 0.6 µM
- EC50 [4, 13]: 14 µM
Structure (SMILES): O=C(Nc1nc2ccccc2[nH]1)c1cn(-c2ccc(F)cc2)nc1-c1cccnc1 [Compound A0042]

- EC50 [1, 7]: 14 µM
- LLE (ligand-lipophilicity efficiency) ([1]; Table 8, MMV03 SAR): 1.2
- EC50 at 68 h [2]: > 50 µM
Structure (SMILES): CC(C)(C)n1cc(C(=O)Nc2nc3ccccc3[nH]2)c(-c2cccnc2)n1 [Compound A0043]

- EC50 [1, 14]: 0.38 µM
- EC50 [4, 15]: > 50 µM
Structure (SMILES): O=C(Nc1cccnc1)c1cc(-c2cccnc2)nc2ccc(Cl)cc12 [Compound A0421]

- EC50 ([1]; Plasmodium falciparum, 3D7): 0.048 ± 0.004 µM
- EC50 ([3]; Plasmodium falciparum, [3H]-hypoxanthine incorporation assay, read-out: EC50): 0.007 to 0.01 µM
Structure (SMILES): OC(c1cc(C(F)(F)F)nc2c(C(F)(F)F)cccc12)C1CCCCN1 (centres unmarked) [Mefloquine, reference compound]

- EC50 [1, 7]: 10 µM
- LLE (ligand-lipophilicity efficiency) ([1]; Table 8, MMV03 SAR): 2.8
- EC50 at 68 h [2]: 50 µM
Structure (SMILES): Cc1nn(-c2ccccc2)cc1C(=O)Nc1cccnc1 [Compound A0040]
